Laboratory results taken from the supplement of paper PMC11061612.

Columns and labels:
M14 (Melanoma) [1] = assay: combination Emax (second highest fraction inhibited in the dose matrix, 72 h); higher = more inhibition; extreme values may be limits of the assay
Method in brief: (§1)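 After 24 hours at 37°C and 5% CO2 in 1536-well plates, cells in DMEM/F12 or RPMI plus 10% FBS received two-drug dose matrices for 72 hours. Viability came from CellTiter-Glo 2.0 luminescence and was scaled as inhibition, anchored at 0 by vehicle wells and at 1 by blank wells. Combination Emax is taken as the second-highest inhibition in the matrix, and Bliss excess as the observed combination effect less EA + EB − EA·EB, with EA and EB the single-agent effects.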

[2] = system: NCI-H2009 (Lung Adenocarcinoma); assay: Bliss excess, mean over the matrix (fraction); higher = more synergy
Method in brief: as §1

[3] = system: NCI-H835 (Other Solid Carcinomas); assay: as above
Method in brief: as §1

[4] = system: L-363 (Plasma Cell Myeloma); assay: as above
Method in brief: as §1

[5] = system: TOV-21G (Ovarian Carcinoma); assay: as above
Method in brief: as §1

HT-144 (Melanoma) = assay: as above
Method in brief: as §1

[6] = system: COR-L105 (Lung Adenocarcinoma); assay: as above
Method in brief: as §1

[7] = system: SNU-1 (Gastric Carcinoma); assay: as above
Method in brief: as §1

[8] = system: JURL-MK1 (Chronic Myelogenous Leukemia); assay: as above
Method in brief: as §1

NCI-H2452 (Mesothelioma) = assay: as above
Method in brief: as §1

[9] = system: MRK-nu-1 (Breast Carcinoma); assay: as above
Method in brief: as §1

[10] = system: C2BBe1 (Colorectal Carcinoma); assay: as above
Method in brief: as §1

M14 (Melanoma) [11] = assay: as above
Method in brief: as §1

[12] = system: NCI-H1048 (Small Cell Lung Carcinoma); assay: as above
Method in brief: as §1

[13] = system: CAL-85-1 (Breast Carcinoma); assay: as above
Method in brief: as §1

A375 (Melanoma) = assay: as above
Method in brief: as §1

[14] = system: GRANTA-519 (B-Cell Non-Hodgkin's Lymphoma); assay: as above
Method in brief: as §1

[15] = system: JJN-3 (Plasma Cell Myeloma); assay: as above
Method in brief: as §1

RVH-421 (Melanoma) [16] = assay: combination Emax (second highest fraction inhibited in the dose matrix, 72 h); higher = more inhibition; extreme values may be limits of the assay
Method in brief: as §1

RVH-421 (Melanoma) [17] = assay: Bliss excess, mean over the matrix (fraction); higher = more synergy
Method in brief: as §1
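Wherever Bliss excess, mean over the matrix is given: after 72 h of two-drug dosing.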

| SMILES | combination Emax (M14 (Melanoma) [1]) | Bliss excess [2] | Bliss excess [3] | Bliss excess [4] | Bliss excess [5] | Bliss excess (HT-144 (Melanoma)) | Bliss excess [6] | Bliss excess [7] | Bliss excess [8] | Bliss excess (NCI-H2452 (Mesothelioma)) | Bliss excess [9] | Bliss excess [10] | Bliss excess (M14 (Melanoma) [11]) | Bliss excess [12] | Bliss excess [13] | Bliss excess (A375 (Melanoma)) | Bliss excess [14] | Bliss excess [15] | combination Emax (RVH-421 (Melanoma) [16]) | Bliss excess (RVH-421 (Melanoma) [17]) |
| --- | --- | --- | --- | --- | --- | --- | --- | --- | --- | --- | --- | --- | --- | --- | --- | --- | --- | --- | --- | --- |
| CN(C)CCCOc1ccc(-c2ccc3ncc4c(c3c2)n(C2CCOCC2)c(=O)n4C)cn1 [AZD0156] + O=C(c1cc(Cc2n[nH]c(=O)c3ccccc23)ccc1F)N1CCN(C(=O)C2CC2)CC1 [Olaparib] (first compound max 3 µM, partner max 3 µM) | 0.365 | 0.16 | 0.0053 | -0.0073 | -0.0054 | 0.0767 | 0.0527 | 0.032 | 0.157 | 0.12 | -0.0198 | -0.0428 | 0.0435 | 0.0772 | -0.039 | 0.0591 | 0.0079 | 0.0264 |  |  |
| COc1cccc(OCCCN)c1-c1cc(Nc2cnc(C#N)cn2)n[nH]1 [Prexasertib] + CCc1c2c(nc3ccc(O)cc13)-c1cc3c(c(=O)n1C2)COC(=O)[C@]3(O)CC [SN-38] (first compound max 1 µM, 7x7, partner max 0.3 µM) |  | 0.132 | -0.0014 | 0.0377 | -0.122 | -0.0236 | -0.0404 | -0.0357 | -0.0109 | 0.103 | -0.0613 | -0.0103 |  | 0.0152 | 0.0699 | -0.0224 | 0.0025 | 0.0314 | 0.363 | -0.069 |
| COc1cccc(OCCCN)c1-c1cc(Nc2cnc(C#N)cn2)n[nH]1 [Prexasertib] + CN(C)CCCOc1ccc(-c2ccc3ncc4c(c3c2)n(C2CCOCC2)c(=O)n4C)cn1 [AZD0156] (first compound max 1 µM, 7x7, partner max 1 µM) |  | 0.019 | 0.0571 | -0.039 | 0.0588 | -0.0135 | -0.0428 | -0.0201 | 0.0231 | -0.0554 | 0.0456 | 0.0131 |  | -0.0023 | -0.0157 | 0.0098 | -0.035 | 0.0057 | 0.314 | -0.0325 |
| COc1cccc(OCCCN)c1-c1cc(Nc2cnc(C#N)cn2)n[nH]1 [Prexasertib] + C[C@@H]1COCCN1C2=NC(=NC(=C2)C3(CC3)[S@](=N)(=O)C)C4=C5C=CNC5=NC=C4 [AZD6738] (first compound max 1 µM, 7x7, partner max 10 µM) |  | 0.0846 | 0.0548 | -0.0104 | -0.0582 | -0.0217 | -0.0425 | -0.0712 | 0.0056 | -0.0061 | -0.0703 | 0.0009 |  | -0.0191 | 0.05 | 0.0067 | -0.062 | -0.0519 | 0.244 | -0.0225 |
| COc1cccc(OCCCN)c1-c1cc(Nc2cnc(C#N)cn2)n[nH]1 [Prexasertib] + Cc1cc2ncnn2cc1Nc1ncc2c(n1)n(C1CCOCC1)c(=O)n2C [AZD7648] (first compound max 1 µM, 7x7, partner max 10 µM) |  | -0.027 | -0.0346 | -0.0437 | 0.0057 | -0.0061 | -0.0549 | -0.0198 | 0.0485 | -0.0623 | -0.0258 | 0.0318 |  | -0.0275 | 0.0382 | 0.0029 | -0.0489 | -0.0097 | 0.344 | -0.0417 |
| COc1cccc(OCCCN)c1-c1cc(Nc2cnc(C#N)cn2)n[nH]1 [Prexasertib] + O=C(c1cc(Cc2n[nH]c(=O)c3ccccc23)ccc1F)N1CCN(C(=O)C2CC2)CC1 [Olaparib] (first compound max 1 µM, 7x7, partner max 10 µM) |  | -0.0185 | -0.045 | -0.0157 | -0.0111 | -0.0264 | -0.0135 | -0.0533 | -0.0042 | -0.0874 | -0.0392 | -0.0704 |  | -0.0073 | -0.0209 | -0.0101 | -0.105 | 0.0165 | 0.3 | -0.0491 |
| CCc1c2c(nc3ccc(O)cc13)-c1cc3c(c(=O)n1C2)COC(=O)[C@]3(O)CC [SN-38] + CN(C)CCCOc1ccc(-c2ccc3ncc4c(c3c2)n(C2CCOCC2)c(=O)n4C)cn1 [AZD0156] (first compound max 0.3 µM, 7x7, partner max 1 µM) |  | 0.126 | -0.0382 | 0.0206 | -0.0349 | -0.0219 | -0.0799 | 0.0303 | 0.0551 | -0.0197 | -0.0534 | -0.0179 |  | 0.0147 | -0.0349 | 0.0168 | -0.0359 | 0.0183 | 0.191 | -0.0576 |
